Source: the NIST ThermoML archive (doi:10.1016/j.fluid.2010.01.019)

Settings: Liquid, Vibrating tube method

CCCCCCC(=O)OCC(COCC(COC(=O)CCCCCC)(COC(=O)CCCCCC)COC(=O)CCCCCC)(COC(=O)CCCCCC)COC(=O)CCCCCC [dipentaerythritol hexaheptanoate]
mass density [kg/m3]
Settings	100 kPa	1000 kPa	5000 kPa	10000 kPa	20000 kPa	30000 kPa	40000 kPa	50000 kPa	60000 kPa	70000 kPa
283.15 K	1000.3	1000.9	1003.2	1005.9	1011.2	1016.1	1020.8	1025.4	1029.9	1034.2
298.15 K	989.7	990.3	992.8	995.7	1001.3	1006.4	1011.3	1016.1	1020.7	1025.2
323.15 K	971.7	972.2	974.9	978.2	984.4	990.1	995.5	1000.6	1005.6	1010.3
333.15 K	964.4	965.1	967.9	971.3	977.8	983.7	989.3	994.6	999.7	1004.6
348.15 K	953.7	954.4	957.4	961	967.8	974.1	980	985.6	990.9	996
373.15 K	935	936.6	939.9	943.9	951.4	958.3	964.7	970.8	976.5	981.9
398.15 K	917.4	918.2	921.7	926.1	934.4	941.9	948.9	955.5	961.6	967.3

CCCCC(=O)OCC(COCC(COC(=O)CCCC)(COC(=O)CCCC)COC(=O)CCCC)(COC(=O)CCCC)COC(=O)CCCC
mass density [kg/m3]
Settings	100 kPa	1000 kPa	5000 kPa	10000 kPa	20000 kPa	30000 kPa	40000 kPa	50000 kPa	60000 kPa	70000 kPa
283.15 K	1045	1045.5	1047.7	1050.4	1055.8	1060.9	1065.8	1070.5	1075	1079.3
298.15 K	1033.7	1034.2	1036.7	1039.7	1045.4	1050.7	1055.9	1060.8	1065.5	1070
323.15 K	1014.6	1015.2	1018	1021.3	1027.6	1033.5	1039	1044.4	1049.5	1054.3
333.15 K	1007	1007.7	1010.6	1014	1020.6	1026.7	1032.4	1037.9	1043.2	1048.2
348.15 K	995.5	996.3	999.4	1003.1	1010	1016.4	1022.5	1028.3	1033.8	1039.1
373.15 K	975.7	977.3	980.8	984.9	992.5	999.6	1006.2	1012.5	1018.4	1024
398.15 K	957	957.8	961.4	965.9	974.4	982.1	989.3	996.1	1002.4	1008.4
